Measurements as given in patent publication EP0171702A1, “Benzoxazinone derivatives, preparation and use” (BEECHAM GROUP PLC, priority 1984, dated 1986).
Where two headings read alike, the source gives them in different places.

Key:
[1] = system: spontaneously beating right atrium; experiment: Isolated rat atria: rate of the spontaneously beating right atrium; details: Rattus norvegicus, Krebs solution at 32°C; for Emax: maximal effect relative to isoprenaline maximum (isoprenaline = 1), read-out: Rate Intrinsic Activity; for EC50: molar concentration producing 50% of the compound's own maximum response
Protocol: (§1) Sprague-Dawley male rats (300-400g) are killed and the right and left atria dissected out independently and mounted on a combined tissue holder/electrode. […] The rate of the spontaneously beating right atrium (via an isometric transducer and a ratemeter) and the tension of the electrically paced left atrium (via an isometric transducer) are recorded on a M19 chart recorder.
(§2) After an initial stabilization period, the tissues are exposed to a maximal concentration of isoprenaline (10-^7M). The tissues are then washed several times until rate and tension return to baseline level. A dose-response curve to the test compound is then carried out.
(§3) Responses to each concentration of test compound are expressed as a percentage of the maximal responses to isoprenaline. Results are given in the form of (a) intrinsic activity (maximal effect of test compound with respect to isoprenaline maximum, i.e. isoprenaline intrinsic activity = 1) and (b) EC50 (the molar concentration at which the test compound produces 50% of its own maximum response).

[2] = system: conscious cats; experiment: Inotropic activity in conscious cats; assay type: in vivo; details: for Peak dp/dt: maximal percentage change in dp/dt of left ventricular pressure over initial baseline level; for Peak HR: maximal percentage change in heart rate over initial baseline level; for dp/dt: HR: ratio of peak dp/dt change to peak HR change
Protocol: Male 3-4.5 kg cats, bred in-house are implanted with a polythene cannula in the left ventricle which is exte- riorised at the back of the neck by means of a small teflon valve. Recordings are made via a pressure transducer attached by means of a length of polyethylene tubing to the cat neck valve.
During an initial 1 hour stabilisation period, steady baseline recordings are obtained. The test compound contained in a gelatine capsule, is then administered orally. Recording is normally carried out for 6 hours post dosing.
The maximal percentage change in dp/dt over initial baseline level is used as the index of inotropic activity. Chronotropic activity is taken as the maximal percentage change in HR over the initial baseline level.

[3] = system: electrically paced left atrium; experiment: Isolated rat atria: tension of the electrically paced left atrium; details: Rattus norvegicus, Krebs solution at 32°C; for Emax: maximal effect relative to isoprenaline maximum (isoprenaline = 1), read-out: Tension Intrinsic Activity; for EC50: molar concentration producing 50% of the compound's own maximum response
Protocol: as §1, §2, §3

[4] = system: Male Sprague-Dawley rats; experiment: Effect on energy expenditure of rats; assay type: in vivo; details: Rattus norvegicus, po, percentage of rate of rats dosed with water; for response vs control in vivo at 7.5 mg/kg: 7.5 mg/kg p.o.; for response vs control in vivo at 4 mg/kg: 4.0 mg/kg p.o.; for response vs control in vivo at 7.8 mg/kg: 7.8 mg/kg p.o.; for response vs control in vivo at 4.1 mg/kg: 4.1 mg/kg p.o.
Protocol: Water was provided ad lib at all times. The compounds were administered orally in water to 3 or 4 rats. A further 4 rats were dosed orally with water. The rats were placed in boxes through which air was drawn and the oxygen content of the air leaving the boxes was measured. The energy expenditure of the rats was calculated for 3 hours and for 21 hours after dosing from the volume of air leaving the boxes and its oxygen content, following the principles described by J.B. de V. Weir, J. Physiol. (London) 109, 1-9 (1949). The results are expressed as a percentage of the rate of energy expenditure of the rats dosed with water.

[5] = system: Female CFLP mice; experiment: Hypoglycaemic activity (subcutaneous glucose load, blood glucose curve); assay type: in vivo; details: glucose 1 g/kg subcutaneously, 2 hour period, compared with control mice given water
Protocol: Female CFLP mice, weighing approximately 25 g, were fasted for 24 hours prior to the study. The compounds under study were administered orally as an aqueous solution to each of 6 mice. 30 minutes later a blood sample (20 ul) was obtained from the tail for the analysis of blood glucose. Immediately after taking this blood sample, glucose (1 g/kg body weight) was administered subcutaneously to each mouse. 6 mice were given water as a control. Blood samples were then obtained from each mouse at 30 minute intervals for 120 minutes.
Compounds that produced a significant (p<0.05) reduction of blood glucose, compared with control mice qiven water, at any time interval were considered active. The area under the blood glucose curve over the 2 hour period after the administration of the glucose was calculated for each compound and compared with the value for control animals.

[6] = 3 h, 0-3h after dosing, read-out: Mean Energy Expenditure 0-3h
[7] = 21 h, 0-21h after dosing, read-out: Mean Energy Expenditure 0-21h

Structure (SMILES): CC(COc1ccc2c(c1)OCC(=O)N2)NCC(O)c1ccc(O)cc1 (stereo not shown) [Example 1, 7-[2-[2-(4-hydroxyphenyl)-2-hydroxyethylamino]-2-methylethoxy]-2H-1,4-benzoxazin-3-(4H)-one]
- Emax [1]: 97%
- EC50 [1]: 6.2 nM
- Peak dp/dt ([2]; 1 mg/kg p.o.): 230%
- Peak HR ([2]; 1 mg/kg p.o.): 46%
- dp/dt: HR ([2]; 1 mg/kg p.o.): 5.0
- Emax [3]: 97%
- EC50 [3]: 21 nM

Structure (SMILES): CC(COc1ccc2c(c1)OCC(=O)N2)NCC(O)c1cccc(Cl)c1 (stereo not shown) [Example 2, 7-[2-[2-(3-Chlorophenyl)-2-hydroxyethylamino]-2-methyl-ethoxy]-2H-1,4-benzoxazin-3-(4H)-one]
- response vs control in vivo at 7.5 mg/kg [4, 6]: 128%
- response vs control in vivo at 7.5 mg/kg [4, 7]: 110%
- Emax [1]: 44%
- EC50 [1]: 55 nM
- Emax [3]: 18%
- EC50 [3]: 85 nM
- % Reduction in area under blood glucose curve ([5]; 2.5 μmol/kg orally): 22%

Structure (SMILES): CC(COc1ccc2c(c1)OCC(=O)N2)NCC(O)COc1ccc(O)cc1 (stereo not shown) [Example 3, 7-[2-[3-(4-Hydroxyphenoxy)-2-hydroxypropylamino]-2-methylethoxy]-2H-1,4-benzoxazin-3-(4H)-one]
- response vs control in vivo at 4 mg/kg [4, 6]: 108%
- response vs control in vivo at 4 mg/kg [4, 7]: 105%
- Emax [1]: 72%
- EC50 [1]: 5.5 nM
- Peak dp/dt ([2]; 0.2 mg/kg p.o.): 23%
- Peak HR ([2]; 0.2 mg/kg p.o.): 0%
- Peak dp/dt ([2]; 1 mg/kg p.o.): 95%
- Peak HR ([2]; 1 mg/kg p.o.): 13%
- dp/dt: HR ([2]; 1 mg/kg p.o.): 7.3
- Emax [3]: 52%
- EC50 [3]: 21 nM
- % Reduction in area under blood glucose curve ([5]; 2.5 μmol/kg orally): 3%

Structure (SMILES): CC(COc1ccc2c(c1)NC(=O)CO2)NCC(O)COc1ccc(O)cc1 (stereo not shown) [Example 4, 6-[2-[3-(4-Hydroxyphenoxy)-2-hydroxypropylamino]-2-methylethoxy]-2H-1,4-benzoxazin-3-(4H)-one]
- response vs control in vivo at 7.8 mg/kg [4, 6]: 128%
- response vs control in vivo at 7.8 mg/kg [4, 7]: 119%
- Emax [1]: 89%
- EC50 [1]: 14 nM
- Peak dp/dt ([2]; 1 mg/kg p.o.): 50%
- Peak HR ([2]; 1 mg/kg p.o.): 36%
- dp/dt: HR ([2]; 1 mg/kg p.o.): 1.4
- Emax [3]: 40%
- EC50 [3]: 50 nM

Structure (SMILES): CC(COc1ccc2c(c1)NC(=O)CO2)NCC(O)c1cccc(Cl)c1 (stereo not shown) [Example 6, 6-[2-[2-(3-Chlorophenyl)-2-hydroxyethylamino]-2-methylethoxy]-2H-1,4-benzoxazin-3-(4H)-one]
- response vs control in vivo at 7.5 mg/kg [4, 6]: 125%
- response vs control in vivo at 7.5 mg/kg [4, 7]: 105%
- Emax [1]: 66%
- EC50 [1]: 25 nM
- Emax [3]: 7%
- EC50 [3]: 300 nM
- % Reduction in area under blood glucose curve ([5]; 10 μmol/kg orally): 29%

Structure (SMILES): CC(COc1ccc2c(c1)NC(=O)CO2)NCC(O)c1ccc(Cl)c(Cl)c1 (stereo not shown) [Example 7, 6-[2-[2-(3,4-Dichlorophenyl)-2-hydroxyethylamino]-2-methylethoxy]-2H-1,4-benzoxazin-3-(4H)-one]
- response vs control in vivo at 4.1 mg/kg [4, 6]: 149%
- response vs control in vivo at 4.1 mg/kg [4, 7]: 107%
- Emax [1]: 50%
- EC50 [1]: 36 nM
- Emax [3]: 14%
- EC50 [3]: 45 nM
- % Reduction in area under blood glucose curve ([5]; 25 μmol/kg orally): 11%
